Assay results taken from ChEMBL document CHEMBL1130888, “Synthesis and anti-HIV activities of symmetrical N1,N3-dibenzyl-2-hydroxy-propane derivatives” (Bioorg Med Chem Lett, 1998).

Legend:
[1] = Partition coefficient (logP); assay type: physicochemical; conditions: octanol/water
[2] = tested on: MT4; assay: Inhibitory activity against syncytia formation in HIV-infected MT-4 cells was evaluated; assay type: functional, cell-based; conditions: Homo sapiens
[3] = tested on: MT4; assay: Cytotoxicity was evaluated against uninfected MT-4 cells; assay type: functional; conditions: Homo sapiens
[4] = tested on: MT4; assay: Inhibitory activity against syncytia formation in HIV-infected MT-4 cells was evaluated; Inactive; assay type: functional, cell-based, Homo sapiens
[5] = tested on: MT4; assay: Inhibitory activity against syncytia formation in HIV-infected MT-4 cells was evaluated; 1-10 uM; assay type: functional, cell-based; conditions: Homo sapiens

Structure (SMILES): O=C(NCc1ccccc1)N(Cc1ccccc1)CC(O)CN(Cc1ccccc1)C(=O)NCc1ccccc1
- logP ([1]; read-out: logP): 5.12
- IC50 [2]: 0.1 µM
- CC50 [3]: > 100 µM

Structure (SMILES): CCCCCCCCOC(=O)N(Cc1ccccc1)CC(O)CN(Cc1ccccc1)C(=O)OCCCCCCCC
- logP [1]: 10.35
- IC50 [2]: 10 µM
- CC50 [3]: 50 µM

Structure (SMILES): CCOC(=O)N(Cc1ccccc1)CC(O)CN(Cc1ccccc1)C(=O)OCC
- logP ([1]; read-out: logP): 3.99
- IC50 [4]: Not Active
- CC50 [3]: 50 µM

Structure (SMILES): CC(C)(C)NC(=O)N(Cc1ccccc1)CC(O)CN(Cc1ccccc1)C(=O)NC(C)(C)C
- logP ([1]; read-out: logP): 4.12
- IC50 [2]: 1 µM
- CC50 [3]: > 100 µM

Structure (SMILES): CC(C)COC(=O)N(Cc1ccccc1)CC(O)CN(Cc1ccccc1)C(=O)OCC(C)C
- logP ([1]; read-out: logP): 5.75
- IC50 [2]: 1 µM
- CC50 [3]: 100 µM

Structure (SMILES): O=C(OCc1ccccc1)N(Cc1ccccc1)CC(O)CN(Cc1ccccc1)C(=O)OCc1ccccc1
- logP ([1]; read-out: logP): 6.48
- IC50 [2]: < 0.1 µM
- CC50 [3]: 10 µM

Structure (SMILES): CC(C)(C)OC(=O)N(Cc1ccccc1)CC(O)CN(Cc1ccccc1)C(=O)OC(C)(C)C
- logP ([1]; read-out: logP): 5.39
- IC50 [5]: 1 µM
- CC50 [3]: > 100 µM

Structure (SMILES): O=C(N1CCOCC1)N(Cc1ccccc1)CC(O)CN(Cc1ccccc1)C(=O)N1CCOCC1
- logP ([1]; read-out: logP): 0.04
- IC50 [4]: Not Active
- CC50 [3]: 100 µM

Structure (SMILES): O=C(OCC1CCCCO1)N(Cc1ccccc1)CC(O)CN(Cc1ccccc1)C(=O)OCC1CCCCO1 (stereo unspecified)
- logP ([1]; read-out: logP): 4.07
- IC50 [4]: Not Active
- CC50 [3]: 50 µM

Structure (SMILES): CN(C(=O)N(Cc1ccccc1)CC(O)CN(Cc1ccccc1)C(=O)N(C)c1ccccc1)c1ccccc1
- logP ([1]; read-out: logP): 7.06
- IC50 [2]: 1 µM
- CC50 [3]: > 100 µM

Structure (SMILES): O=C(OC1CCOC1)N(Cc1ccccc1)CC(O)CN(Cc1ccccc1)C(=O)OC1CCOC1 (stereo unspecified)
- logP ([1]; read-out: logP): 2.48
- IC50 [4]: Not Active
- CC50 [3]: 50 µM

Structure (SMILES): O=C(OCC1CCCO1)N(Cc1ccccc1)CC(O)CN(Cc1ccccc1)C(=O)OCC1CCCO1 (stereo unspecified)
- logP ([1]; read-out: logP): 2.94
- IC50 [4]: Not Active
- CC50 [3]: 50 µM
